Assays:
Test in all cases: fitness (endpoint OD595 vs no drug) (fraction); higher = more growth
[1] = tested on: S. pneumoniae D39V
Method in brief: (§1)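 In 384-well plates at 37 °C, cultures began at OD595 0.01 in 30 µl, with 55 µl used for S. pneumoniae. OD595 readings every 30 min for 14 h were corrected by the first reading. Fitness divides the stationary-phase transition optical density by the robust mean of no-drug control wells. The result is capped at 1.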

[2] = tested on: S. aureus Newman
Method in brief: as §1

[3] = tested on: S. aureus DSM 20231
Method in brief: as §1
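Further: OD595 on entry to stationary phase over no-drug wells; at most 1.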

CO[C@@]12[C@H](COC(N)=O)C3=C(C(=O)C(C)=C(N)C3=O)N1C[C@@H]1N[C@@H]12 [Mitomycin C] + Cc1cc(NS(=O)(=O)c2ccc(N)cc2)no1 [Sulfamethoxazol]
fitness
Conditions | first compound 0.001075 µg/mL | first compound 0.00215 µg/mL | first compound 0.0043 µg/mL | first compound 0.0156 µg/mL | first compound 0.0312 µg/mL | first compound 0.0625 µg/mL
[1], partner 1 µg/mL | 0.886 | 0.851 | 0.773 | – | – | –
[1], partner 2 µg/mL | 0.894 | 0.873 | 0.779 | – | – | –
[1], partner 4 µg/mL | 0.921 | 0.913 | 0.787 | – | – | –
[2], partner 1 µg/mL | – | – | – | 0.779 | 0.66 | 0.546
[2], partner 2 µg/mL | – | – | – | 0.777 | 0.698 | 0.559
[2], partner 4 µg/mL | – | – | – | 0.73 | 0.622 | 0.516
[3], partner 1 µg/mL | – | – | – | 0.703 | 0.664 | 0.534
[3], partner 2 µg/mL | – | – | – | 0.686 | 0.689 | 0.558
[3], partner 4 µg/mL | – | – | – | 0.721 | 0.684 | 0.547

fitness, one replicate
Conditions | first compound 0.002 µg/mL | first compound 0.004 µg/mL | first compound 0.008 µg/mL | first compound 0.0156 µg/mL | first compound 0.0312 µg/mL | first compound 0.0625 µg/mL
[1], partner 1 µg/mL | 0.81 | 0.724 | 0.496 | – | – | –
[1], partner 2 µg/mL | 0.727 | 0.686 | 0.459 | – | – | –
[1], partner 4 µg/mL | 0.739 | 0.7 | 0.513 | – | – | –
[2], partner 8 µg/mL | – | – | – | 0.993 | 0.823 | 0.658

CO[C@@]12[C@H](COC(N)=O)C3=C(C(=O)C(C)=C(N)C3=O)N1C[C@@H]1N[C@@H]12 [Mitomycin C] + Cc1ncc([N+](=O)[O-])n1CCO [Metronidazole]
Conditions | fitness
[1], first compound 0.001075 µg/mL, partner 1.25 µg/mL | 0.972
[1], first compound 0.001075 µg/mL, partner 2.5 µg/mL | 0.974
[1], first compound 0.001075 µg/mL, partner 5 µg/mL | 0.93
[1], first compound 0.002 µg/mL, partner 1.073 µg/mL | 0.853
[1], first compound 0.002 µg/mL, partner 2.145 µg/mL | 0.812
[1], first compound 0.002 µg/mL, partner 4.29 µg/mL | 0.791
[1], first compound 0.00215 µg/mL, partner 1.25 µg/mL | 0.971
[1], first compound 0.00215 µg/mL, partner 2.5 µg/mL | 0.984
[1], first compound 0.00215 µg/mL, partner 5 µg/mL | 0.933
[1], first compound 0.004 µg/mL, partner 1.073 µg/mL | 0.802
[1], first compound 0.004 µg/mL, partner 2.145 µg/mL | 0.806
[1], first compound 0.004 µg/mL, partner 4.29 µg/mL | 0.742
[1], first compound 0.0043 µg/mL, partner 1.25 µg/mL | 0.857
[1], first compound 0.0043 µg/mL, partner 2.5 µg/mL | 0.852
[1], first compound 0.0043 µg/mL, partner 5 µg/mL | 0.836
[1], first compound 0.008 µg/mL, partner 1.073 µg/mL | 0.72
[1], first compound 0.008 µg/mL, partner 4.29 µg/mL | 0.735
[2], first compound 0.0156 µg/mL, partner 0.625 µg/mL | 0.75
[2], first compound 0.0156 µg/mL, partner 1.25 µg/mL | 0.766
[2], first compound 0.0156 µg/mL, partner 2.5 µg/mL | 0.709
[2], first compound 0.0312 µg/mL, partner 0.625 µg/mL | 0.649
[2], first compound 0.0312 µg/mL, partner 1.25 µg/mL | 0.698
[2], first compound 0.0312 µg/mL, partner 2.5 µg/mL | 0.569
[2], first compound 0.0625 µg/mL, partner 0.625 µg/mL | 0.524
[2], first compound 0.0625 µg/mL, partner 1.25 µg/mL | 0.517
[2], first compound 0.0625 µg/mL, partner 2.5 µg/mL | 0.369
[3], first compound 0.0156 µg/mL, partner 0.625 µg/mL | 0.775
[3], first compound 0.0156 µg/mL, partner 1.25 µg/mL | 0.873
[3], first compound 0.0156 µg/mL, partner 2.5 µg/mL | 0.799
[3], first compound 0.0312 µg/mL, partner 0.625 µg/mL | 0.756
[3], first compound 0.0312 µg/mL, partner 1.25 µg/mL | 0.782
[3], first compound 0.0312 µg/mL, partner 2.5 µg/mL | 0.779
[3], first compound 0.0625 µg/mL, partner 0.625 µg/mL | 0.593
[3], first compound 0.0625 µg/mL, partner 1.25 µg/mL | 0.606
[3], first compound 0.0625 µg/mL, partner 2.5 µg/mL | 0.643

fitness, [2], one replicate
Conditions | first compound 0.0156 µg/mL | first compound 0.0312 µg/mL | first compound 0.0625 µg/mL
partner 0.781 µg/mL | 0.737 | 0.703 | 0.581
partner 1.562 µg/mL | 0.731 | 0.689 | 0.625
partner 3.124 µg/mL | 0.704 | 0.747 | 0.584

CO[C@@]12[C@H](COC(N)=O)C3=C(C(=O)C(C)=C(N)C3=O)N1C[C@@H]1N[C@@H]12 [Mitomycin C] + Cc1onc(-c2ccccc2)c1C(=O)N[C@@H]1C(=O)N2[C@@H]1SC(C)(C)[C@@H]2C(=O)O [Oxacillin]
Conditions | fitness
[1], first compound 0.001075 µg/mL, partner 0.01 µg/mL | 0.973
[1], first compound 0.001075 µg/mL, partner 0.02 µg/mL | 0.957
[1], first compound 0.002 µg/mL, partner 0.01 µg/mL | 0.838
[1], first compound 0.002 µg/mL, partner 0.02 µg/mL | 0.764
[1], first compound 0.002 µg/mL, partner 0.04 µg/mL | 0.219
[1], first compound 0.00215 µg/mL, partner 0.01 µg/mL | 0.974
[1], first compound 0.00215 µg/mL, partner 0.02 µg/mL | 0.968
[1], first compound 0.00215 µg/mL, partner 0.04 µg/mL | 0.605
[1], first compound 0.004 µg/mL, partner 0.01 µg/mL | 0.813
[1], first compound 0.004 µg/mL, partner 0.02 µg/mL | 0.735
[1], first compound 0.004 µg/mL, partner 0.04 µg/mL | 0.227
[1], first compound 0.0043 µg/mL, partner 0.01 µg/mL | 0.891
[1], first compound 0.0043 µg/mL, partner 0.02 µg/mL | 0.822
[1], first compound 0.008 µg/mL, partner 0.01 µg/mL | 0.664
[1], first compound 0.008 µg/mL, partner 0.02 µg/mL | 0.636
[1], first compound 0.008 µg/mL, partner 0.04 µg/mL | 0.241
[2], first compound 0.0156 µg/mL, partner 0.0156 µg/mL | 0.672
[2], first compound 0.0156 µg/mL, partner 0.0312 µg/mL | 0.616
[2], first compound 0.0156 µg/mL, partner 0.0625 µg/mL | 0.485
[2], first compound 0.0312 µg/mL, partner 0.0156 µg/mL | 0.571
[2], first compound 0.0312 µg/mL, partner 0.0312 µg/mL | 0.534
[2], first compound 0.0312 µg/mL, partner 0.0625 µg/mL | 0.423
[2], first compound 0.0625 µg/mL, partner 0.0156 µg/mL | 0.421
[2], first compound 0.0625 µg/mL, partner 0.0312 µg/mL | 0.307
[2], first compound 0.0625 µg/mL, partner 0.0625 µg/mL | 0.111
[3], first compound 0.0156 µg/mL, partner 0.0156 µg/mL | 0.586
[3], first compound 0.0156 µg/mL, partner 0.0312 µg/mL | 0.458
[3], first compound 0.0156 µg/mL, partner 0.0625 µg/mL | 0.389
[3], first compound 0.0312 µg/mL, partner 0.0156 µg/mL | 0.581
[3], first compound 0.0312 µg/mL, partner 0.0312 µg/mL | 0.499
[3], first compound 0.0312 µg/mL, partner 0.0625 µg/mL | 0.432
[3], first compound 0.0625 µg/mL, partner 0.0156 µg/mL | 0.544
[3], first compound 0.0625 µg/mL, partner 0.0312 µg/mL | 0.474
[3], first compound 0.0625 µg/mL, partner 0.0625 µg/mL | 0.348
